Values after ≈ are worked out from the molar mass of the structure shown.
Experiments:
[1] = test system: P. aeruginosa ATCC 27853; assay: Broth microdilution MIC in CAMHB; type: cell-based; conditions: Pseudomonas aeruginosa, ATCC27853; MHB; read-out: Minimum Inhibitory Concentration, P. aeruginosa ATCC 27853
Summary of the method: (§1)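 CLSI broth microdilution in CAMHB: 2-fold compound dilutions inoculated at 2-8×10^5 CFU/mL from 3-5 h log-phase cultures. Incubated at 37 °C for 16-20 h (Enterobacteriaceae, Pseudomonas); MIC read visually as lowest concentration without growth. Strains include hyper-permeable and efflux-deficient mutants.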

[2] = test system: K. pneumoniae 848844 producing SHV-11 and KPC-2; assay: Broth microdilution MIC in CAMHB; type: cell-based; conditions: Klebsiella pneumoniae, read-out: Minimum Inhibitory Concentration, K. pneumoniae 848844
Summary of the method: as §1

[3] = test system: K. pneumoniae UMM producing SHV-5 and KPC-2; assay: Broth microdilution MIC in CAMHB; type: cell-based; conditions: Klebsiella pneumoniae, read-out: Minimum Inhibitory Concentration, K. pneumoniae UMM
Summary of the method: as §1

[4] = test system: P. aeruginosa ATCC 35151; assay: Broth microdilution MIC in CAMHB; type: cell-based; conditions: Pseudomonas aeruginosa, ATCC35151; MHB; hyper-permeable strain; read-out: Minimum Inhibitory Concentration, P. aeruginosa ATCC 35151
Summary of the method: as §1

[5] = test system: E. coli 901C; assay: Broth microdilution MIC in CAMHB; type: cell-based; conditions: Escherichia coli; E. coli 901C (hyper-permeable); MHB; read-out: Minimum Inhibitory Concentration, E. coli 901C
Summary of the method: as §1

[6] = test system: E. coli AG100; assay: Broth microdilution MIC in CAMHB; type: cell-based; conditions: Escherichia coli; E. coli AG100 (wild-type parent); MHB; read-out: Minimum Inhibitory Concentration, E. coli AG100
Summary of the method: as §1

[7] = test system: K. pneumoniae SI-117 producing VIM-1; assay: Broth microdilution MIC in CAMHB; type: cell-based; conditions: Klebsiella pneumoniae, read-out: Minimum Inhibitory Concentration, K. pneumoniae SI-117
Summary of the method: as §1

[8] = test system: A. baumannii ATCC 19606; assay: Broth microdilution MIC in CAMHB; type: cell-based; conditions: Acinetobacter baumannii, ATCC19606; MHB; read-out: Minimum Inhibitory Concentration, A. baumannii ATCC 19606
Summary of the method: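 CLSI microdilution; CAMHB; inoculum 2-8×10^5 CFU/mL from 3-5 h 37° C culture; 2-fold compound series; 16-20 h, 37° C; MIC = lowest well without visible growth.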

[9] = molecular target: T1, E. coli K12 PBP3 (Escherichia coli, UniProt P0AD68); assay: biochemical; type: binding
T1 construct: made in house
Summary of the method: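 Fluorescence polarization (ex 490/em 520 nm) competition of inhibitors against Bocillin-FL at 0.1 μM, read up to 60 min. Final PBP levels: E. coli PBP3 1.5 μM; A. baumannii PBP2 2.5 μM, PBP3 0.2 μM in Tris pH 8.0/NaCl/glycerol/Tween 20; N. gonorrhoeae PBP2 […] in Hepes pH 8.0/NaCl/glycerol. EC50 = concentration halving PBP-bound Bocillin-FL.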

T1 sequence (P0AD68 1-577): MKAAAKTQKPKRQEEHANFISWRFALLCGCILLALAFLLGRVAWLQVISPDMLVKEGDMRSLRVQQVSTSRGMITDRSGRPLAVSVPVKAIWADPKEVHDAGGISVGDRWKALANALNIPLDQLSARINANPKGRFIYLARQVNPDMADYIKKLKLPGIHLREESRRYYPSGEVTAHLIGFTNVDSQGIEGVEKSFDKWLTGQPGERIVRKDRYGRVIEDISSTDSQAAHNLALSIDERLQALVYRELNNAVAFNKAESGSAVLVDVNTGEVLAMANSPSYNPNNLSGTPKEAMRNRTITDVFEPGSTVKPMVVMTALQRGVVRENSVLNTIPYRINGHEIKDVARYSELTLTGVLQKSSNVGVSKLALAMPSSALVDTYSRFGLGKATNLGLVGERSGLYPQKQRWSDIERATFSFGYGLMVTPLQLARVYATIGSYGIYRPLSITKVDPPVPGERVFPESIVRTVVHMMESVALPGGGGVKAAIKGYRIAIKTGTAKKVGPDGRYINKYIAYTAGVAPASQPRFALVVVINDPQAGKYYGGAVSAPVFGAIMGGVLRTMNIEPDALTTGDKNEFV

Row | Structure (SMILES) | MIC [1] [µg/mL] | MIC [2] [µg/mL] | MIC [3] [µg/mL] | MIC [4] [µg/mL] | MIC [5] [µg/mL] | MIC [6] [µg/mL] | MIC [7] [µg/mL] | MIC [8] [µg/mL] | EC50 [9] [µM]
1 | CCN1CCN(C(=O)NC(C(=O)N[C@H]2Cc3ccc(F)c(C(=O)O)c3OB2O)c2ccc(C(=O)O)cc2)C(=O)C1=O (stereo partly drawn) [Example 15, (3R)-3-(2-(4-carboxyphenyl)-2-(4-ethyl-2,3-dioxopiperazine-1-carboxamido)acetamido)-7-fluoro-2-hydroxy-3,4-dihydro-2H-benzo[e][1,2]oxaborinine-8-carboxylic acid] | 32 to 64 (≈ 56.1 to 112 µM) | > 128 | > 128 | < 0.25 | 0.5 to 1 (≈ 0.877 to 1.75 µM) | > 128 | > 128 | > 128 | < 30
2 | CCN1CCN(C(=O)NC(C(=O)N[C@H]2Cc3cccc(C(=O)O)c3OB2O)c2cc(O)cc(O)c2)C(=O)C1=O (mixture of isomers) [Example 79, (3R)-3-(2-(3,5-dihydroxyphenyl)-2-(4-ethyl-2,3-dioxopiperazine-1-carboxamido)acetamido)-2-hydroxy-3,4-dihydro-2H-benzo[e][1,2]oxaborinine-8-carboxylic acid] | > 128 | 32 to 64 | 8 to 16 | 0.5 to 1 | < 0.25 | 8 to 16 | 32 to 64 | > 128 | 30 to 500
3 | N=C(N)NCCN1CCN(C(=O)NC(C(=O)N[C@H]2Cc3ccc(F)c(C(=O)O)c3OB2O)c2ncc(O)cc2F)C(=O)C1=O (stereo partly drawn) [Example 51, (3R)-7-fluoro-3-(2-(3-fluoro-5-hydroxypyridin-2-yl)-2-(4-(2-guanidinoethyl)-2,3-dioxopiperazine-1-carboxamido)acetamido)-2-hydroxy-3,4-dihydro-2H-benzo[e][1,2]oxaborinine-8-carboxylic acid] | > 128 | 32 to 64 (≈ 51.8 to 104 µM) | 8 to 16 (≈ 12.9 to 25.9 µM) | 0.5 to 1 (≈ 0.809 to 1.62 µM) | 2 to 4 (≈ 3.23 to 6.47 µM) | 32 to 64 (≈ 51.8 to 104 µM) | 32 to 64 (≈ 51.8 to 104 µM) | > 128 | 30 to 500
4 | CCN1CCN(C(=O)NC(C(=O)N[C@H]2Cc3cccc(C(=O)O)c3OB2O)c2ccc(O)c(NC(=O)c3ccc(O)c(O)c3Cl)c2)C(=O)C1=O (stereo partly drawn) [Example 74, (3R)-3-(2-(3-(2-chloro-3,4-dihydroxybenzamido)-4-hydroxyphenyl)-2-(4-ethyl-2,3-dioxopiperazine-1-carboxamido)acetamido)-2-hydroxy-3,4-dihydro-2H-benzo[e][1,2]oxaborinine-8-carboxylic acid] | 8 to 16 (≈ 11.3 to 22.5 µM) | > 128 | > 128 | 0.5 to 1 (≈ 0.704 to 1.41 µM) | < 0.25 | 8 to 16 (≈ 11.3 to 22.5 µM) | > 128 | > 128 | < 30
5 | CCN1CCN(C(=O)NC(C(=O)N[C@H]2Cc3cccc(C(=O)O)c3OB2O)c2c(F)cc(O)cc2Cl)C(=O)C1=O (stereo partly drawn) [Example 95, (3R)-3-(2-(2-chloro-6-fluoro-4-hydroxyphenyl)-2-(4-ethyl-2,3-dioxopiperazine-1-carboxamido)acetamido)-2-hydroxy-3,4-dihydro-2H-benzo[e][1,2]oxaborinine-8-carboxylic acid] | > 128 | 32 to 64 (≈ 55.5 to 111 µM) | 8 to 16 (≈ 13.9 to 27.7 µM) | 2 to 4 (≈ 3.47 to 6.94 µM) | < 0.25 | 8 to 16 (≈ 13.9 to 27.7 µM) | 32 to 64 (≈ 55.5 to 111 µM) | > 128 | < 30
6 | CCN1CCN(C(=O)N[C@H](C(=O)N[C@H]2Cc3cccc(C(=O)O)c3OB2O)c2nc(Cl)c(C(=O)O)cc2F)C(=O)C1=O [Example 19, 6-((S)-2-(((R)-8-carboxy-2-hydroxy-3,4-dihydro-2H-benzo[e][1,2]oxaborinin-3-yl)amino)-1-(4-ethyl-2,3-dioxopiperazine-1-carboxamido)-2-oxoethyl)-2-chloro-5-fluoronicotinic acid] | > 128 | > 128 | > 128 | 0.5 to 1 (≈ 0.825 to 1.65 µM) | 0.5 to 1 (≈ 0.825 to 1.65 µM) | > 128 | > 128 | > 128 | < 30
